This passage reports inhibition and IC50 results from ChEMBL document CHEMBL3603840, “Discovery of non-competitive thrombin inhibitor derived from competitive tryptase inhibitor skeleton: Shift in molecular recognition resulted from skeletal conversion of carboxylate into phosphonate” (Bioorg Med Chem Lett, 2015).

Assay [1] deals with T1, Trypsin (Homo sapiens, UniProt P07477+P07478+P35030). Kind of assay: Inhibition of trypsin (unknown origin) using Bz-Arg-pNA.HCl as substrate at 10 uM after 5 mins by colorimetric analysis. The assay is classed as protein assay.
For assay [2], the target named is T2, Tryptase (Homo sapiens, UniProt Q9BZJ3+Q15661+Q9NRR2). Kind of assay: Inhibition of tryptase (unknown origin) using t-Boc-Phe-Ser-Arg-MCA as substrate at 10 uM after 5 mins by fluorimetric analysis. Format: protein assay.
In assay [3] the target is T3, Prothrombin (Homo sapiens, UniProt P00734). Kind of assay: Inhibition of thrombin (unknown origin) using t-Boc-Val-Pro-Arg-MCA as substrate at 10 uM after 5 mins by fluorimetric analysis.
For assay [4], the target named is T3, Prothrombin. Kind of assay: Non-competitive inhibition of thrombin (unknown origin) using t-Boc-Val-Pro-Arg-MCA as substrate by Lineweaver-Burk plot analysis.
For assay [5], the target named is T2, Tryptase. Kind of assay: Inhibition of tryptase (unknown origin) using t-Boc-Phe-Ser-Arg-MCA as substrate after 5 mins by fluorimetric analysis. The assay is classed as protein assay.
Assay [6] has as its target T1, Trypsin. Kind of assay: Inhibition of trypsin (unknown origin) using Bz-Arg-pNA.HCl as substrate after 5 mins by colorimetric analysis. The assay is classed as protein assay.
The target of assay [7] is T3, Prothrombin. Kind of assay: Competitive inhibition of thrombin (unknown origin) using t-Boc-Val-Pro-Arg-MCA as substrate by Lineweaver-Burk plot analysis.
Assay [8] has as its target T3, Prothrombin. Kind of assay: Inhibition of thrombin (unknown origin) using t-Boc-Val-Pro-Arg-MCA as substrate after 5 mins by fluorimetric analysis.

pIC50: −log10 of the molar value. Activity calls are given as the source filed them. No cut-off for these calls is given here.

One may read the inhibition as the drop in the measured response relative to a control, in per cent. Turning to `CN1C(=O)c2ccc(NC(CCc3ccc(N)nc3)P(=O)(Oc3ccccc3)Oc3ccccc3)cc2C1=O` (stereo not given), the inhibition result on Trypsin [1], on Tryptase [2] and at Prothrombin [3] was “inactive” each time.

Regarding `CCOP(=O)(CCc1ccc(N)nc1)Oc1ccc2c(c1)C(=O)N(C)C2=O` (stereo not given), the inhibition result at Prothrombin [4] and at Trypsin [1] was “inactive” in each case. Besides, the inhibition was 11% at Tryptase [2] and 95% on Prothrombin [3].

`CC(C)N1C(=O)c2ccc(NC(CCc3ccc(N)nc3)P(=O)(Oc3ccccc3)Oc3ccccc3)cc2C1=O` (stereo not given): the inhibition entry at Trypsin [1], on Tryptase [2] and on Prothrombin [3] was “inactive” in each case.

With `CCOP(=O)(Cc1ccc(N)nc1)Oc1ccc2c(c1)C(=O)N(C)C2=O` (stereo not given), at Trypsin [1], the inhibition result was “inactive”. Further, the inhibition against Tryptase [2] turned out to be 5.3%; at Prothrombin [3], 59%.

In general, IC50 refers to the point on the concentration scale where inhibition reaches its midpoint. One may read the pIC50 as the IC50 on a negative log10 scale, so that one unit is a factor of ten. Regarding `CN1C(=O)c2ccc(OC(=O)CCc3ccc(N)nc3)cc2C1=O.Cl`, the IC50 against Tryptase [5] was 0.19 µM; against Trypsin [6], 1.2 µM. Also, the inhibition against Trypsin [1] came out at 97%; at Tryptase [2] it was 98%; at Prothrombin [3] it was 70%. For the same molecule, the inhibition result on Prothrombin [7] was “Active”. In addition, the pIC50 on Prothrombin [8] is 5.28.
